These are literature values, as cited in patent US9951057B2, “COMT inhibiting methods and compositions” (Lieber Institute for Brain Development, priority 2015, dated 2018).

For data set [1], the target named is T1, aromatic amino acid decarboxylase (AAAD) (Homo sapiens, UniProt P20711).
T1 sequence (P20711 1-480): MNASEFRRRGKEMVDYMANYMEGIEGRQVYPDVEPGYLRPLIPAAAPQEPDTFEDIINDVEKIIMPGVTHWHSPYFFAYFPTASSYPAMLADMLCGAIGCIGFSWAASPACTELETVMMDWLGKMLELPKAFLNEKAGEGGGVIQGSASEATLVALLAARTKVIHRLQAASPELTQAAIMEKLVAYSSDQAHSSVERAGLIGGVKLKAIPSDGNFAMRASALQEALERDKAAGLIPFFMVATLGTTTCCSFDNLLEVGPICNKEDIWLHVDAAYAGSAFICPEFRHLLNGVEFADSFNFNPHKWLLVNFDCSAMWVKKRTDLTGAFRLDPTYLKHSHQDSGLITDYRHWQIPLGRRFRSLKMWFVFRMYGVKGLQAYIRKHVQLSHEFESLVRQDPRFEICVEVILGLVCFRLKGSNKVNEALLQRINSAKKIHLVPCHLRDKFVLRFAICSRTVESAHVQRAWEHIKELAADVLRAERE
To be noted: given with L-DOPA; Nutt, Woodward et al. 1985; cited from earlier work.

The conditions of data set [2]: Russ, et al. 1999; cited from earlier work.
The conditions of data set [3]: clinical use; Olanow and Watkins 2007; cited from earlier work.

Regarding `C[C@@](Cc1ccc(O)c(O)c1)(NN)C(=O)O` [Carbidopa], in data set [1], the “reduction of the efficacious L-DOPA dose” value is given as 60-80%. Consider `Cc1ccc(C(=O)c2cc(O)c(O)c([N+](=O)[O-])c2)cc1` [tolcapone], for which the “brain penetration / levels in the brain” value in data set [2] was “low but measurable levels in the brain”. In data set [3], the liver injury result is given as “associated with serious liver injury, including three deaths”.
